Like-named read-outs stand apart in the source and are kept apart here.
Legend:
[1] = system: K. aridum; test: susceptibility of K. aridum to antibiotics, disk diffusion method; assay type: cell-based, Kibdelosporangium aridum; conditions: for zone of inhibition at 5 µg/disc: Kibdelosporangium aridum, 168 h
Procedure: Susceptibility of K. aridum to antibiotics was examined by placing BBL susceptibility disks on nutrient agar plates seeded with K. aridum as an overlay. Diameters of the zones of inhibition were measured after incubation for one week at 28° C.
Chlortetracycline ([…]) produced 18 mm zones of inhibition; tetracycline (5 μg) 11-12 mm zones; rifampin (5 μg) 11-15 mm zones; novobiocin (5 μg) 27-28 mm zones. All zones of inhibition contained at least a few resistant colonies.

[2] = system: rumen in vitro model; test: rumen in vitro model (growth promotant activity); set-up: species or system steer
Procedure: The protocol for the rumen in vitro model is analogous to the protocol for the swine in vitro model with the following modifications:
(1) A 400 kg steer is surgically prepared with a rumen cannula.
(2) The animal is fed one time a day with the following ration:
(3) Manipulation of VFA production is described as the production ratio of propionate as a percentage of total VFA produced.
(4) Sampling of the material, via the cannula, is at 120 minutes post feeding.

[3] = system: Swine in vitro model; test: swine in vitro model (growth promotant activity)
[4] = rye diet; for Feed/Gain 3-10: days 3-10; for Feed/Gain 3-17: days 3-17; for Feed/Gain 10-17: days 10-17

Compound: CO[C@@H]1[C@@H](OC(N)=O)[C@@H](O)[C@H](Oc2ccc3c(O)c(NC(=O)c4ccc(O)c(CC=C(C)C)c4)c(=O)oc3c2C)OC1(C)C [novobiocin]
- zone of inhibition at 5 µg/disc [1]: 27 to 28 mm

Compound: CC1(C)S[C@@H]2[C@H](NC(=O)Cc3ccccc3)C(=O)N2[C@H]1C(=O)O [penicillin]
- susceptibility of K. aridum ([1]; disk 10 units): resistant

Compound: CO[C@H]1/C=C/O[C@@]2(C)Oc3c(C)c(O)c4c(O)c(c(/C=N/N5CCN(C)CC5)c(O)c4c3C2=O)NC(=O)/C(C)=C\C=C\[C@H](C)[C@H](O)[C@@H](C)[C@@H](O)[C@@H](C)[C@H](OC(C)=O)[C@@H]1C [rifampin]
- zone of inhibition at 5 µg/disc [1]: 11 to 15 mm

Compound: [H]/N=C(/N)N[C@H]1[C@H](O)[C@@H](O)[C@H](O[C@@H]2O[C@@H](C)[C@](O)(C=O)[C@H]2O[C@@H]2O[C@@H](CO)[C@H](O)[C@@H](O)[C@@H]2NC)[C@@H](N/C(N)=N\[H])[C@@H]1O [streptomycin]
- susceptibility of K. aridum ([1]; disk 10 μg): resistant

Compound: CN(C)C1C(=O)C(C(N)=O)=C(O)C2(O)C(=O)C3=C(O)c4c(O)cccc4C(C)(O)C3CC12 (centres unmarked) [tetracycline]
- zone of inhibition at 5 µg/disc [1]: 11 to 12 mm

Compound: NC[C@H]1O[C@H](O[C@H]2[C@H](O)[C@@H](O[C@H]3O[C@H](CO)[C@@H](O)[C@H](N)[C@H]3O)[C@H](N)C[C@@H]2N)[C@H](N)C[C@@H]1O [tobramycin]
- susceptibility of K. aridum ([1]; disk 10 μg): resistant

Compound: Avoparcin
- GLU (glucose) ([2]; 0.5 ppm): 116 % Control
- Propionate % ([2]; 0.5 ppm): 106 % Control
- GLU (glucose) ([2]; 5.0 ppm): 166 % Control
- Propionate % ([2]; 5.0 ppm): 121 % Control
- GLU (glucose) ([2]; 50.0 ppm): 141 % Control
- Propionate % ([2]; 50.0 ppm): 132 % Control

Compound: Virginiamycin
- LAC (L-lactic acid) [3]: 81 % Control
- GLU (glucose) ([3]; 1.67 ppm): 182 % Control
- LAC (L-lactic acid) ([3]; 1.67 ppm): 70 % Control
- LYS (lysine) ([3]; 1.67 ppm): 82 % Control
- GLU (glucose) ([3]; 16.67 ppm): 191 % Control
- LAC (L-lactic acid) ([3]; 16.67 ppm): 76 % Control
- LYS (lysine) ([3]; 16.67 ppm): 127 % Control
- GLU (glucose) ([3]; 166.67 ppm): 197 % Control
- LYS (lysine) ([3]; 166.67 ppm): 163 % Control
- Weight Day 10 ([4]; 10.0 PPM): 103.8 % of Control
- Weight Day 17 ([4]; 10.0 PPM): 116.0 % of Control
- Feed/Gain 3-10 ([4]; 10.0 PPM): 97.4 % of Control
- Feed/Gain 3-17 ([4]; 10.0 PPM): 90.4 % of Control
- Feed/Gain 10-17 ([4]; 10.0 PPM): 83.6 % of Control
- Weight Day 10 ([4]; 50.0 PPM): 105.0 % of Control
- Weight Day 17 ([4]; 50.0 PPM): 121.3 % of Control
- Feed/Gain 3-10 ([4]; 50.0 PPM): 93.2 % of Control
- Feed/Gain 3-17 ([4]; 50.0 PPM): 83.2 % of Control
- Feed/Gain 10-17 ([4]; 50.0 PPM): 74.6 % of Control

Compound: gentamicin
- susceptibility of K. aridum ([1]; disk 10 μg): resistant
